# Reference: ChEMBL document CHEMBL3593218, “4,6-Substituted-1,3,5-triazin-2(1H)-ones as monocyclic catalytic inhibitors of human DNA topoisomerase IIα targeting the ATP binding site” (Bioorg Med Chem, 2015)
# pIC50: −log10 of the molar value. Several values for one entry are separate records, joined by “and”; a condition that tells them apart may be missing. Identical values can stand only once.
# Tests used:
# [1] = target: T1, DNA topoisomerase 2-alpha (Homo sapiens, UniProt P11388); assay: Inhibition of human DNA topoisomerase IIalpha using plasmid pNO1 as a substrate after 30 mins
# [2] = Lipophilicity, log P of the compound; assay type: physicochemical; details: octanol/water
# [3] = target: T1, DNA topoisomerase 2-alpha; assay: Inhibition of human DNA topoisomerase IIalpha assessed as decatenation of kDNA at 500 uM after 90 mins by ethidium bromide staining; set-up: scale not given: the % may be the effect or the level left
# [4] = target: T1, DNA topoisomerase 2-alpha; assay: Inhibition of human DNA topoisomerase IIalpha assessed as decatenation of kDNA at 125 uM after 90 mins by ethidium bromide staining; set-up: scale not given: the % may be the effect or the level left
# [5] = target: T1, DNA topoisomerase 2-alpha; assay: Inhibition of human DNA topoisomerase IIalpha assessed as decatenation of kDNA at 31.5 uM after 90 mins by ethidium bromide staining; set-up: scale not given: the % may be the effect or the level left
# [6] = target: T1, DNA topoisomerase 2-alpha; assay: Inhibition of human DNA topoisomerase IIalpha assessed as decatenation of kDNA at 3.9 uM after 90 mins by ethidium bromide staining; set-up: scale not given: the % may be the effect or the level left
# [7] = target: T1, DNA topoisomerase 2-alpha; assay: Inhibition of human DNA topoisomerase IIalpha assessed as decatenation of kDNA after 90 mins by ethidium bromide staining
# [8] = target: T1, DNA topoisomerase 2-alpha; assay: Inhibition of human DNA topoisomerase IIalpha assessed as reduction in enzyme-catalyzed supercoiling of relaxed circular pBR322 DNA by measuring linear DNA level at 3.9 uM after 60 mins by agarose gel electrophoresis; set-up: scale not given: the % may be the effect or the level left
# [9] = target: T1, DNA topoisomerase 2-alpha; assay: Inhibition of human DNA topoisomerase IIalpha assessed as reduction in enzyme-catalyzed supercoiling of relaxed circular pBR322 DNA by measuring linear DNA level at 31.5 uM after 60 mins by agarose gel electrophoresis; set-up: scale not given: the % may be the effect or the level left
# [10] = target: T1, DNA topoisomerase 2-alpha; assay: Inhibition of human DNA topoisomerase IIalpha assessed as reduction in enzyme-catalyzed supercoiling of relaxed circular pBR322 DNA by measuring linear DNA level at 125 uM after 60 mins by agarose gel electrophoresis; set-up: scale not given: the % may be the effect or the level left
# [11] = target: T1, DNA topoisomerase 2-alpha; assay: Inhibition of human DNA topoisomerase IIalpha assessed as reduction in enzyme-catalyzed supercoiling of relaxed circular pBR322 DNA by measuring linear DNA level at 500 uM after 60 mins by agarose gel electrophoresis; set-up: scale not given: the % may be the effect or the level left
# [12] = target: T1, DNA topoisomerase 2-alpha; assay: Inhibition of human DNA topoisomerase IIalpha assessed as reduction in enzyme-catalyzed supercoiling of relaxed circular pBR322 DNA by measuring linear DNA level at 15.625 uM after 60 mins by agarose gel electrophoresis; set-up: scale not given: the % may be the effect or the level left
# [13] = target: T1, DNA topoisomerase 2-alpha; assay: Inhibition of human DNA topoisomerase IIalpha assessed as reduction in enzyme-catalyzed supercoiling of relaxed circular pBR322 DNA by measuring linear DNA level at 62.5 uM after 60 mins by agarose gel electrophoresis; set-up: scale not given: the % may be the effect or the level left
# [14] = target: T1, DNA topoisomerase 2-alpha; assay: Inhibition of human DNA topoisomerase IIalpha assessed as reduction in enzyme-catalyzed supercoiling of relaxed circular pBR322 DNA by measuring linear DNA level at 50 uM after 60 mins by agarose gel electrophoresis; set-up: scale not given: the % may be the effect or the level left
# [15] = target: T1, DNA topoisomerase 2-alpha; assay: Inhibition of human DNA topoisomerase IIalpha assessed as reduction in enzyme-catalyzed supercoiling of relaxed circular pBR322 DNA by measuring linear DNA level at 3.9 uM after 60 mins by agarose gel electrophoresis in presence of 50 uM of etoposide; set-up: scale not given: the % may be the effect or the level left
# [16] = target: T1, DNA topoisomerase 2-alpha; assay: Inhibition of human DNA topoisomerase IIalpha assessed as reduction in enzyme-catalyzed supercoiling of relaxed circular pBR322 DNA by measuring linear DNA level at 31.5 uM after 60 mins by agarose gel electrophoresis in presence of 50 uM of etoposide; set-up: scale not given: the % may be the effect or the level left
# [17] = target: T1, DNA topoisomerase 2-alpha; assay: Inhibition of human DNA topoisomerase IIalpha assessed as reduction in enzyme-catalyzed supercoiling of relaxed circular pBR322 DNA by measuring linear DNA level at 125 uM after 60 mins by agarose gel electrophoresis in presence of 50 uM of etoposide; set-up: scale not given: the % may be the effect or the level left
# [18] = target: T1, DNA topoisomerase 2-alpha; assay: Inhibition of human DNA topoisomerase IIalpha assessed as reduction in enzyme-catalyzed supercoiling of relaxed circular pBR322 DNA by measuring linear DNA level at 500 uM after 60 mins by agarose gel electrophoresis in presence of 50 uM of etoposide; set-up: scale not given: the % may be the effect or the level left
# [19] = target: T1, DNA topoisomerase 2-alpha; assay: Inhibition of human DNA topoisomerase IIalpha assessed as reduction in enzyme-catalyzed supercoiling of relaxed circular pBR322 DNA by measuring linear DNA level at 3.9 uM after 60 mins by agarose gel electrophoresis in presence of 62.5 uM of etoposide; set-up: scale not given: the % may be the effect or the level left
# [20] = target: T1, DNA topoisomerase 2-alpha; assay: Inhibition of human DNA topoisomerase IIalpha assessed as reduction in enzyme-catalyzed supercoiling of relaxed circular pBR322 DNA by measuring linear DNA level at 31.5 uM after 60 mins by agarose gel electrophoresis in presence of 62.5 uM of etoposide; set-up: scale not given: the % may be the effect or the level left
# [21] = target: T1, DNA topoisomerase 2-alpha; assay: Inhibition of human DNA topoisomerase IIalpha assessed as reduction in enzyme-catalyzed supercoiling of relaxed circular pBR322 DNA by measuring linear DNA level at 125 uM after 60 mins by agarose gel electrophoresis in presence of 62.5 uM of etoposide; set-up: scale not given: the % may be the effect or the level left
# [22] = target: T1, DNA topoisomerase 2-alpha; assay: Inhibition of human DNA topoisomerase IIalpha assessed as reduction in enzyme-catalyzed supercoiling of relaxed circular pBR322 DNA by measuring linear DNA level at 500 uM after 60 mins by agarose gel electrophoresis in presence of 62.5 uM of etoposide; set-up: scale not given: the % may be the effect or the level left
# [23] = target: T1, DNA topoisomerase 2-alpha; assay: Inhibition of human DNA topoisomerase IIalpha assessed as reduction in enzyme-catalyzed supercoiling of relaxed circular pBR322 DNA by measuring linear DNA level after 60 mins by agarose gel electrophoresis
# [24] = target: T1, DNA topoisomerase 2-alpha; assay: Inhibition of human DNA topoisomerase IIalpha ATPase activity assessed as residual ATP hydrolysis at 3.9 uM measured up to 60 mins
# [25] = target: T1, DNA topoisomerase 2-alpha; assay: Inhibition of human DNA topoisomerase IIalpha ATPase activity assessed as residual ATP hydrolysis at 31.5 uM measured up to 60 mins
# [26] = target: T1, DNA topoisomerase 2-alpha; assay: Inhibition of human DNA topoisomerase IIalpha ATPase activity assessed as residual ATP hydrolysis at 125 uM measured up to 60 mins
# [27] = target: T1, DNA topoisomerase 2-alpha; assay: Inhibition of human DNA topoisomerase IIalpha ATPase activity assessed as residual ATP hydrolysis at 500 uM measured up to 60 mins
# T1 sequence (P11388 whole entry): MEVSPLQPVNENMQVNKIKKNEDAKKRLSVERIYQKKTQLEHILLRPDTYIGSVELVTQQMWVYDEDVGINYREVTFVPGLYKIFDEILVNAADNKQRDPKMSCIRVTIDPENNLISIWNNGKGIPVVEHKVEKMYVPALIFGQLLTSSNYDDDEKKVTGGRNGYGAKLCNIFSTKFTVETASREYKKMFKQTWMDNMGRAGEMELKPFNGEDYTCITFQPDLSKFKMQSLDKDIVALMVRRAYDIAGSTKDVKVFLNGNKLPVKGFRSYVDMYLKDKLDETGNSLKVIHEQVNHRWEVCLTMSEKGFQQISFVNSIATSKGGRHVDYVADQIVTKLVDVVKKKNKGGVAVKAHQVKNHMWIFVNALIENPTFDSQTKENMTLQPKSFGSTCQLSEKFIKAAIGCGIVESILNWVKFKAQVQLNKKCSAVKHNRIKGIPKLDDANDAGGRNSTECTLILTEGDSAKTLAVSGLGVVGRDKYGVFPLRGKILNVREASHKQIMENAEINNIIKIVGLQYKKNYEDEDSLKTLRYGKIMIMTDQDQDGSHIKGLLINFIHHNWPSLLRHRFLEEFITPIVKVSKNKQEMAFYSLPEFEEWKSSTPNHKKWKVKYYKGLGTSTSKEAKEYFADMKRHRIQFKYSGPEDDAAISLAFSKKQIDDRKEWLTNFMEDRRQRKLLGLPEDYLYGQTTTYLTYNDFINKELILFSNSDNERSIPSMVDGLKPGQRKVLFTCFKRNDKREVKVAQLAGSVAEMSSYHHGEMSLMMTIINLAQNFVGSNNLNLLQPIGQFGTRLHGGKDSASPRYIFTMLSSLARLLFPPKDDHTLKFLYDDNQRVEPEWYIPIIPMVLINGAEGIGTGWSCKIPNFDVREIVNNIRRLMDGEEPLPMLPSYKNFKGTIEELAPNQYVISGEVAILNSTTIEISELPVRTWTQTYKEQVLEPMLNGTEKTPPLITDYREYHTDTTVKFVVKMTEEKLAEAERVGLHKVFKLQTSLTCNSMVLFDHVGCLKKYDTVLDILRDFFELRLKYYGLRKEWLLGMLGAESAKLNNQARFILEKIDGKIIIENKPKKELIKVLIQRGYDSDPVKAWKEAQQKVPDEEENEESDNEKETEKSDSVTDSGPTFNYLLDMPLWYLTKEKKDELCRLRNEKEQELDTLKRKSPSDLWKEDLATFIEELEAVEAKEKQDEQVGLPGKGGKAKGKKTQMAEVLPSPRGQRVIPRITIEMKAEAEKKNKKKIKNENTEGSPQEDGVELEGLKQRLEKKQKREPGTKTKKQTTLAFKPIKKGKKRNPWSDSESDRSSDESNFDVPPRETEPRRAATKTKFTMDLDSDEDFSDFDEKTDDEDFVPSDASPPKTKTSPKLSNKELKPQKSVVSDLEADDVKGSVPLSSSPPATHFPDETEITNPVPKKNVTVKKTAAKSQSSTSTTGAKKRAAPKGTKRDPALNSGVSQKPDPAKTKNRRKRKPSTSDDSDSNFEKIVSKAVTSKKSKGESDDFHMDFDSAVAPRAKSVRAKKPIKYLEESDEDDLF
compound,measurement,setting,value
O=c1nc(SCc2ccccc2)nc(SCc2ccccc2F)[nH]1,pIC50,[1],4.14
same,logP,[2],2.7
same,Activity,[3],0.115%
same,Activity,[4],8.55%
same,Activity,[5],92.6%
same,Activity,[6],91.5%
same,inhibition,[7],Dose-dependent effect
same,Activity,[8],3%
same,Activity,[9],2.3%
same,Activity,[10],1.6%
same,Activity,[11],2.3%
same,Activity,[12],3.1%
same,Activity,[13],2.1% and 18.1%
same,Activity,[14],34.6%
same,Activity,[15],34.3%
same,Activity,[16],33.5%
same,Activity,[17],9.2%
same,Activity,[18],5.3%
same,Activity,[19],20.6%
same,Activity,[20],18.5%
same,Activity,[21],16.3%
same,Activity,[22],1.4%
same,inhibition,[23],Dose-dependent effect
same,Activity,[24],86.9%
same,Activity,[25],93.7%
same,Activity,[26],0%
same,Activity,[27],0%
